According to patent publication US20020035061A1, “COMPOSITIONS AND METHODS FOR TREATING INFECTIONS USING CATIONIC PEPTIDES ALONE OR IN COMBINATION WITH ANTIBIOTICS” (priority 1996, published 2002):

Experiments:
[1] = tested on: inherently resistant microorganisms; assay: microbe, parasite or virus in culture; assay type: cell-based
[2] = tested on: microorganisms with acquired resistance; assay: microbe, parasite or virus in culture; assay type: cell-based; conditions: for Peptide MIC: in µg/mL

KWKSFIKKLTSAAKKVVTTAKPLISS [MBI 26]
0.50: FIC ([1]; peptide + Mupirocin, E. coli) | FIC ([2]; peptide + Ceftriaxone, B. cepacia BC003) | FIC ([2]; peptide + Ciprofloxacin, P. aeruginosa PA41) | FIC ([2]; peptide + Ciprofloxacin, S. maltophilia 35) | FIC ([2]; peptide + Piperacillin, A. calcoaceticus 2) | FIC ([2]; peptide + Tobramycin, S. epidermidis SE071) | FIC ([2]; peptide + Tobramycin, S. maltophilia SMA027)
128 µg/mL: Peptide MIC Alone ([1]; P. aeruginosa, Ceftriaxone section) | Peptide MIC Alone ([2]; P. aeruginosa PA41, Ciprofloxacin section) | Peptide MIC Alone ([2]; P. aeruginosa PA77, Ciprofloxacin section)
0.38: FIC ([2]; peptide + Ciprofloxacin, A. calcoaceticus 5) | FIC ([2]; peptide + Ciprofloxacin, E. cloacae 16) | FIC ([2]; peptide + Ciprofloxacin, E. cloacae 17)
2 µg/mL: MBI 26 MIC Alone ([1]; E. casseliflavus 97057 VanC) | Peptide MIC Alone ([1]; E. coli, Mupirocin section) | MBI 26 MIC Alone ([1]; E. gallinarum 97046 VanC) | MBI 26 MIC + Vancomycin ([1]; E. gallinarum 97048 VanC) | MBI 26 MIC Alone ([1]; E. gallinarum 97048 VanC) | Peptide MIC + Ceftriaxone ([1]; S. maltophilia) | Peptide MIC Alone ([2]; A. baumannii ABI005, Ceftriaxone section) | Peptide MIC Alone ([2]; A. baumannii ABI006, Ceftriaxone section) | Peptide MIC + Ciprofloxacin ([2]; P. aeruginosa 30) | Peptide MIC Alone ([2]; S. epidermidis SE068, Tobramycin section) | Peptide MIC + Piperacillin ([2]; S. maltophilia 2) | Gentamicin MIC + Peptide ([2]; S. maltophilia SMA019) | Peptide MIC + Gentamicin ([2]; S. maltophilia SMA019) | Piperacillin MIC + Peptide ([2]; S. marcescens 1)
64 µg/mL: MBI 26 MIC Alone ([1]; E. gallinarum 97047 VanC) | MBI 26 MIC Alone ([1]; E. gallinarum 97049 VanC) | MBI 26 MIC Alone ([1]; K. pneumoniae KP002) | MBI 26 MIC Alone ([1]; P. aeruginosa PA041) | Peptide MIC + Gentamicin ([2]; P. aeruginosa PA023) | Peptide MIC Alone ([2]; P. aeruginosa PA041, Gentamicin section) | Peptide MIC + Ciprofloxacin ([2]; P. aeruginosa PA77) | Peptide MIC + Tobramycin ([2]; S. maltophilia SMA027)
0.5 µg/mL: MBI 26 MIC + Vancomycin ([1]; E. casseliflavus 97057 VanC) | MBI 26 MIC + Vancomycin ([1]; E. casseliflavus 97059 VanC) | MBI 26 MIC Alone ([1]; E. casseliflavus 97060 VanC) | MBI 26 MIC + Vancomycin ([1]; E. gallinarum 97044 VanC) | Gentamicin MIC + Peptide ([2]; A. baumannii ABI002) | Ceftriaxone MIC + Peptide ([2]; A. baumannii ABI005) | Peptide MIC + Tobramycin ([2]; S. epidermidis SE068) | Ciprofloxacin MIC + Peptide ([2]; S. maltophilia 35)
4: Peptide MIC ([2]; A. calcoaceticus, combination with Ciprofloxacin) | Peptide MIC ([2]; S. aureus, combination with Mupirocin)
8 µg/mL: MBI 26 MIC + Erythro. ([1]; A. calcoaceticus AC001) | MBI 26 MIC Alone ([1]; E. casseliflavus 97056 VanC) | MBI 26 MIC Alone ([1]; E. gallinarum 97044 VanC) | MBI 26 MIC + Vancomycin ([1]; E. gallinarum 97047 VanC) | MBI 26 MIC + Erythro. ([1]; K. pneumoniae KP001) | Peptide MIC Alone ([1]; S. maltophilia, Ceftriaxone section) | Peptide MIC Alone ([2]; A. baumannii ABI001, Gentamicin section) | Peptide MIC Alone ([2]; A. baumannii ABI002, Gentamicin section) | Ceftriaxone MIC + Peptide ([2]; A. baumannii ABI006) | Peptide MIC + Piperacillin ([2]; A. calcoaceticus 7) | Ceftriaxone MIC + Peptide ([2]; B. cepacia BC003) | Peptide MIC + Piperacillin ([2]; E. cloacae 13) | Piperacillin MIC + Peptide ([2]; P. aeruginosa 26) | Peptide MIC + Tobramycin ([2]; S. epidermidis SE071) | Peptide MIC + Piperacillin ([2]; S. maltophilia 4) | Peptide MIC + Ciprofloxacin ([2]; S. maltophilia 34) | Peptide MIC + Gentamicin ([2]; S. maltophilia SMA017)
0.26: FIC ([2]; peptide + Piperacillin, S. maltophilia 35)
1 µg/mL: MBI 26 MIC + Vancomycin ([1]; E. casseliflavus 97056 VanC) | Peptide MIC + Mupirocin ([1]; E. coli) | Peptide MIC + Ceftriaxone ([2]; A. baumannii ABI005) | Peptide MIC + Ceftriaxone ([2]; A. baumannii ABI006) | Ciprofloxacin MIC + Peptide ([2]; P. aeruginosa PA41) | Gentamicin MIC + Peptide ([2]; S. maltophilia SMA017)
0.25 µg/mL: MBI 26 MIC + Vancomycin ([1]; E. casseliflavus 97058 VanC) | MBI 26 MIC + Vancomycin ([1]; E. casseliflavus 97060 VanC) | Ciprofloxacin MIC + Peptide ([2]; A. calcoaceticus 5) | Ciprofloxacin MIC + Peptide ([2]; E. cloacae 16) | Ciprofloxacin MIC + Peptide ([2]; E. cloacae 17) | Ciprofloxacin MIC + Peptide ([2]; P. aeruginosa 30) | Ciprofloxacin MIC + Peptide ([2]; P. aeruginosa 31) | Ciprofloxacin MIC + Peptide ([2]; S. maltophilia 34)
0.125 µg/mL: Peptide MIC + Ceftriaxone ([2]; B. cepacia BC003) | Ciprofloxacin MIC + Peptide ([2]; P. aeruginosa PA77) | Tobramycin MIC + Peptide ([2]; S. epidermidis SE071)
0.27: FIC ([2]; peptide + Ciprofloxacin, P. aeruginosa 31) | FIC ([2]; peptide + Piperacillin, P. aeruginosa 23) | FIC ([2]; peptide + Tobramycin, S. epidermidis SE068)
0.52: FIC ([2]; peptide + Gentamicin, S. maltophilia SMA017) | FIC ([2]; peptide + Piperacillin, S. maltophilia 41)
32: Peptide MIC ([2]; A. calcoaceticus, combination with Ceftazidime) | Peptide MIC ([2]; S. maltophilia, combination with Piperacillin)
1: Peptide MIC ([2]; S. haemolyticus, combination with Clindamycin)
0.13: FIC ([1]; peptide + Piperacillin, S. aureus MRSA)
>64 µg/mL: Peptide MIC Alone ([2]; P. aeruginosa 23, Piperacillin section)
0.19: FIC ([1]; peptide + Amikacin, S. maltophilia) | FIC ([2]; peptide + Ceftriaxone, E. cloacae ECL015) | FIC ([2]; peptide + Piperacillin, H. influenzae 1) | FIC ([2]; peptide + Piperacillin, H. influenzae 2)
0.09: FIC ([2]; peptide + Ciprofloxacin, P. aeruginosa 30) | FIC ([2]; peptide + Piperacillin, S. marcescens 1)
4 µg/mL: MBI 26 MIC Alone ([1]; E. casseliflavus 97058 VanC) | MBI 26 MIC + Vancomycin ([1]; E. gallinarum 97046 VanC) | Peptide MIC + Piperacillin ([1]; S. aureus MRSA) | Gentamicin MIC + Peptide ([2]; A. baumannii ABI001) | Peptide MIC + Gentamicin ([2]; A. baumannii ABI001) | Peptide MIC + Gentamicin ([2]; A. baumannii ABI002) | Piperacillin MIC + Peptide ([2]; A. calcoaceticus 2) | Piperacillin MIC + Peptide ([2]; A. calcoaceticus 7) | Piperacillin MIC + Peptide ([2]; E. cloacae 13) | Piperacillin MIC + Peptide ([2]; E. cloacae 19) | Ceftriaxone MIC + Peptide ([2]; E. cloacae ECL015) | Peptide MIC + Ceftriaxone ([2]; E. cloacae ECL015) | Piperacillin MIC + Peptide ([2]; H. influenzae 1) | Piperacillin MIC + Peptide ([2]; P. aeruginosa 23) | Gentamicin MIC + Peptide ([2]; P. aeruginosa PA023) | Tobramycin MIC + Peptide ([2]; P. aeruginosa PA031) | Gentamicin MIC + Peptide ([2]; P. aeruginosa PA041) | Tobramycin MIC + Peptide ([2]; S. epidermidis SE068) | Peptide MIC Alone ([2]; S. maltophilia 2, Piperacillin section) | Piperacillin MIC + Peptide ([2]; S. maltophilia 35) | Peptide MIC Alone ([2]; S. maltophilia SMA019, Gentamicin section) | Tobramycin MIC + Peptide ([2]; S. maltophilia SMA027)
>128 µg/mL: Peptide MIC Alone ([2]; B. cepacia BC003, Ceftriaxone section) | Peptide MIC Alone ([2]; H. influenzae 1, Piperacillin section) | Peptide MIC Alone ([2]; H. influenzae 2, Piperacillin section) | Peptide MIC Alone ([2]; P. aeruginosa 7, Piperacillin section) | Peptide MIC Alone ([2]; P. aeruginosa PA023, Gentamicin section) | Peptide MIC Alone ([2]; S. maltophilia SMA027, Tobramycin section) | Peptide MIC Alone ([2]; S. marcescens 1, Piperacillin section)
0.63: FIC ([2]; peptide + Piperacillin, S. maltophilia 4)
32 µg/mL: MBI 26 MIC Alone ([1]; E. casseliflavus 97059 VanC) | MBI 26 MIC + Erythro. ([1]; K. pneumoniae KP002) | MBI 26 MIC + Erythro. ([1]; P. aeruginosa PA041) | Peptide MIC Alone ([1]; S. aureus MRSA, Piperacillin section) | Peptide MIC Alone ([2]; A. calcoaceticus 2, Piperacillin section) | Peptide MIC Alone ([2]; E. cloacae ECL015, Ceftriaxone section) | Peptide MIC + Piperacillin ([2]; H. influenzae 1) | Peptide MIC + Piperacillin ([2]; P. aeruginosa 7) | Piperacillin MIC + Peptide ([2]; P. aeruginosa 7) | Peptide MIC + Piperacillin ([2]; P. aeruginosa 23) | Peptide MIC + Piperacillin ([2]; P. aeruginosa 26) | Peptide MIC Alone ([2]; P. aeruginosa PA031, Tobramycin section) | Peptide MIC + Ciprofloxacin ([2]; P. aeruginosa PA41) | Peptide MIC + Piperacillin ([2]; S. maltophilia 41)
0.75: FIC ([2]; peptide + Gentamicin, P. aeruginosa PA023) | FIC ([2]; peptide + Gentamicin, P. aeruginosa PA041) | FIC ([2]; peptide + Piperacillin, S. maltophilia 2) | FIC ([2]; peptide + Tobramycin, P. aeruginosa PA031)
2: Peptide MIC ([2]; S. epidermidis, combination with Clindamycin) | Peptide MIC ([2]; S. haemolyticus, combination with Methicillin)
0.16: FIC ([2]; peptide + Piperacillin, E. cloacae 13)
0.25: FIC ([1]; peptide + Ceftriaxone, S. maltophilia) | Peptide MIC ([2]; S. aureus, combination with Ampicillin) | FIC ([2]; peptide + Ciprofloxacin, S. maltophilia 34) | FIC ([2]; peptide + Piperacillin, A. calcoaceticus 7) | FIC ([2]; peptide + Piperacillin, P. aeruginosa 7)
16 µg/mL: MBI 26 MIC Alone ([1]; A. calcoaceticus AC001) | MBI 26 MIC + Vancomycin ([1]; E. gallinarum 97049 VanC) | MBI 26 MIC Alone ([1]; K. pneumoniae KP001) | Peptide MIC + Piperacillin ([2]; A. calcoaceticus 2) | Peptide MIC + Ciprofloxacin ([2]; A. calcoaceticus 5) | Peptide MIC + Ciprofloxacin ([2]; E. cloacae 16) | Peptide MIC + Ciprofloxacin ([2]; E. cloacae 17) | Peptide MIC + Piperacillin ([2]; E. cloacae 19) | Peptide MIC + Piperacillin ([2]; H. influenzae 2) | Piperacillin MIC + Peptide ([2]; H. influenzae 2) | Peptide MIC + Ciprofloxacin ([2]; P. aeruginosa 31) | Peptide MIC + Tobramycin ([2]; P. aeruginosa PA031) | Peptide MIC + Gentamicin ([2]; P. aeruginosa PA041) | Peptide MIC Alone ([2]; S. epidermidis SE071, Tobramycin section) | Piperacillin MIC + Peptide ([2]; S. maltophilia 2) | Piperacillin MIC + Peptide ([2]; S. maltophilia 4) | Peptide MIC Alone ([2]; S. maltophilia 4, Piperacillin section) | Peptide MIC + Ciprofloxacin ([2]; S. maltophilia 35) | Peptide MIC + Piperacillin ([2]; S. maltophilia 35) | Piperacillin MIC + Peptide ([2]; S. maltophilia 41) | Peptide MIC Alone ([2]; S. maltophilia SMA017, Gentamicin section) | Peptide MIC + Piperacillin ([2]; S. marcescens 1)
>32 µg/mL: Peptide MIC Alone ([2]; A. calcoaceticus 5, Ciprofloxacin section) | Peptide MIC Alone ([2]; A. calcoaceticus 7, Piperacillin section) | Peptide MIC Alone ([2]; E. cloacae 13, Piperacillin section) | Peptide MIC Alone ([2]; E. cloacae 16, Ciprofloxacin section) | Peptide MIC Alone ([2]; E. cloacae 17, Ciprofloxacin section) | Peptide MIC Alone ([2]; E. cloacae 19, Piperacillin section) | Peptide MIC Alone ([2]; P. aeruginosa 26, Piperacillin section) | Peptide MIC Alone ([2]; P. aeruginosa 30, Ciprofloxacin section) | Peptide MIC Alone ([2]; P. aeruginosa 31, Ciprofloxacin section) | Peptide MIC Alone ([2]; S. maltophilia 34, Ciprofloxacin section) | Peptide MIC Alone ([2]; S. maltophilia 35, Ciprofloxacin section) | Peptide MIC Alone ([2]; S. maltophilia 35, Piperacillin section) | Peptide MIC Alone ([2]; S. maltophilia 41, Piperacillin section)
0.31: FIC ([2]; peptide + Piperacillin, E. cloacae 19)
0.56: FIC ([2]; peptide + Ceftriaxone, A. baumannii ABI006) | FIC ([2]; peptide + Ciprofloxacin, P. aeruginosa PA77) | FIC ([2]; peptide + Gentamicin, A. baumannii ABI001) | FIC ([2]; peptide + Piperacillin, P. aeruginosa 26)
0.53: FIC ([2]; peptide + Ceftriaxone, A. baumannii ABI005) | FIC ([2]; peptide + Gentamicin, A. baumannii ABI002) | FIC ([2]; peptide + Gentamicin, S. maltophilia SMA019)
